How the values were obtained:
[1] = system: Akt (Ser473 and Thr308 phosphorylation); assay: Western blot analysis of Akt phosphorylation in MDA-MB-231 cells; format: cell-based, human; conditions: MDA-MB-231, 2μM for 6 hours and 12 hours
protein translation = assay: 35S-Methionine labeled protein translation assay; format: cell-based; conditions: 2, 4 and 8μM for 8 hours
MCF10A cells = assay: MTT assay with immortalized normal breast cells MCF10A; format: cell-based, human; conditions: for killing of normal MCF10A cells: compared with cancerous MCF-7 and MDA-MB-231 cells
MDA-MB-231 cells = assay: MTT assay, antiproliferative activity in MDA-MB-231; format: cell-based, human; conditions: for in vitro anticancer activity at single concentration: MDA-MB-231, 10μM of each analogue for three days
eEF1A2 = molecular target: T1, eEF1A2 (Homo sapiens, UniProt Q05639); format: binding; conditions: biotinylated compounds on SA chip; apparent KDs unreliable
T1 sequence (Q05639 1-463): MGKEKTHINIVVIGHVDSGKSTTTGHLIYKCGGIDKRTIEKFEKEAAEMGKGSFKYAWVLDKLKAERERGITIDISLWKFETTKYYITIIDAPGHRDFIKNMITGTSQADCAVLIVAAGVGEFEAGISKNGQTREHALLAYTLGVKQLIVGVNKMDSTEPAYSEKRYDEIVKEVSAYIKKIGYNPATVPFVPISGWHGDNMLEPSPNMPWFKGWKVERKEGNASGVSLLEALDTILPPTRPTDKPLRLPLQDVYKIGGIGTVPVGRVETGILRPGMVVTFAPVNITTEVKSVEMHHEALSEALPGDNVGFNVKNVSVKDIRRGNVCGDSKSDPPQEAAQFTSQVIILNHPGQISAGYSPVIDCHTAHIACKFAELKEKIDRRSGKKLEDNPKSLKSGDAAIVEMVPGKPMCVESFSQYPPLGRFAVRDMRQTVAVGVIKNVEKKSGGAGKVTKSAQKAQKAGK

MCF-7 cells = assay: MTT assay, antiproliferative activity in MCF-7; format: cell-based, human; conditions: MCF-7, 10μM of each analogue for three days
eEF1A = format: binding, human; conditions: biotinylated compound, MDA-MB-231 cell lysate, neutravidin beads, western blot
[2] = system: eukaryotic elongation factor 1A1 (eEF1A1); conditions: four rounds of biopanning, 12 phage clones per compound sequenced

decrease in IC50 compared to 10 (MDA-MB-231 cells; MDA-MB-231) [fold]	binding of eEF1A2 (SPR) (eEF1A2)	SMILES	phosphorylation of serine 473 and threonine 308 in Akt [1]	35S-methionine incorporation into cellular proteins (protein translation)	normal MCF10A cells killed (MCF10A cells; at 50μM)	killing of normal MCF10A cells (MCF10A cells)	in vitro anticancer activity at single concentration (MCF-7 cells)	binding of eEF1A in pull down (eEF1A)	binding protein recovered from phage clones [2]	in vitro anticancer activity at single concentration (MDA-MB-231 cells)
5	selectively bind to eEF1A2	CC(C)C[C@H](NC(=O)c1ccc(-c2cc(=O)c3cc([N+](=O)[O-])c(N[C@H](C)C4CCCCC4)cc3o2)cc1)C(N)=O [Compound 39]	able to suppress phosphorylation	decreased ^35S-methionine incorporation into cellular proteins in a dose-dependent manner	about 65%					
		CC(C)CNc1nc2cc3c(=O)cc(-c4ccc(C(=O)N[C@@H](Cc5ccccc5)C(N)=O)cc4)oc3cc2n1Cc1ccccc1 [Compound 24]				killed normal MCF10A cell in a similar manner as cancerous MCF-7 and MDA-MB-213 cells	among the most active compounds	eEF1A did indeed bind	Eukaryotic elongation factor 1A 1 (eEF1A1) was also recovered	among the most active compounds
		COc1ccc(Nc2nc3cc4c(=O)cc(-c5ccc(C(=O)N[C@@H](CC(C)C)C(N)=O)cc5)oc4cc3n2[C@H](C)C2CCCCC2)cc1 [Compound 10]				killed normal MCF10A cell in a similar manner as cancerous MCF-7 and MDA-MB-213 cells	among the most active compounds	eEF1A did indeed bind	two clones encoded eukaryotic elongation factor 1A1 (eEF1A1)	among the most active compounds

From PMC3169196 (Journal of medicinal chemistry, 2011)
